Columns and labels:
MKL-1 = test: Cell Titer Glo dose-response study; type: cell-based, human; conditions: Homo sapiens, MKL-1, read-out: EC50 concentrations for MCC cell lines, MKL-1
Excerpt: (§1) Seven Merkel cell carcinoma cell lines: MKL-1, MKL-2, MS-1, UISO, MCC13, MCC26 and WaGa (kind gift of Jurgen Becker (Houben et al., Merkel cell polyomavirus-infected Merkel cell carcinoma cells require expression of viral T antigens. J Virol 84, 7064 (July, 2010); Ronan et al., Merkel cell carcinoma: in vitro and in vivo characteristics of a new cell line. J Am Acad Dermatol 29, 715 (November, 1993); Rosen et al., Establishment and characterization of a neuroendocrine skin carcinoma cell line. Lab Invest 56, 302 (March, 1987)); NCI-H69 small cell lung cancer cell line (ATCC); 293 human embryonic kidney cells (ATCC); U2OS osteosarcoma cell line (kind gift of Ole Gjoerup); BJhTERT immortalized foreskin fibroblast cell line (kind gift of Ole Gjoerup); and BJ primary foreskin fibroblasts (ATCC) were used to screen and evaluate the small molecules examined in this study (Houben et al., J Virol 84, 7064 (July, 2010); Ronan et al., J Am Acad Dermatol 29, 715 (November, 1993); Rosen et al., Lab Invest 56, 302 (March, 1987)). The Merkel cell lines and NCI-H69 were grown in RPMI 1640 supplemented with 10% fetal calf serum, penicillin and streptomycin at 37° C. in humidified air containing 5% CO2. The remaining cell lines were grown in DMEM supplemented with 10% fetal calf serum.
(§2) For EC50 measurements, dose-response curves were established for 17 drugs obtained individually in bulk stocks. Iodoacetamide (I1149), sanguarine chloride (S5890), NSC95397 (N1786), chelerythrine chloride (C2932), calmidazolium chloride (C3930), tetraethylthiuram disulfide (T1132), bay 11-7085 (B5681), quinacrine dihydro chloride (Q3251), ellipticine (E3380), amsacrine hydrochloride (A9809) and nutlin-3 (N6287) were purchased from Sigma Aldrich, USA.
(§3) Compounds that met the selection criteria <10% cell survival were purchased or obtained in bulk from NCI/NIH Developmental Therapeutics Program. Serial drug dilutions from 10^−4 M to 10^−9 M were used on MCC and non-MCC cell lines. Cells were seeded into 384-well plates at 6000 cells in 50 μl of medium per well. After 24 hours, 25 μl of 3× drugs were added at increasing concentration to each well. Cell viability was then measured using Cell Titer Glo (Promega) kit following manufacturer's instructions as described previously. Each drug concentration was tested in triplicate for each cell line and experiments were repeated twice. EC50 doses for the drugs were calculated using a four parameter logistic equation (GraphPad Prism).

MKL-2 = test: Cell Titer Glo dose-response study; type: cell-based, human; conditions: Homo sapiens, read-out: EC50 concentrations for MCC cell lines, MKL-2
Excerpt: as §1, §2, §3

MS-1 = test: Cell Titer Glo dose-response study; type: cell-based, human; conditions: Homo sapiens, MS-1, read-out: EC50 concentrations for MCC cell lines, MS-1
Excerpt: as §1, §2, §3

UISO = test: Cell Titer Glo dose-response study; type: cell-based, human; conditions: Homo sapiens, read-out: EC50 concentrations for MCC cell lines, UISO
Excerpt: as §1, §2, §3

WaGa = test: Cell Titer Glo dose-response study; type: cell-based, human; conditions: Homo sapiens, read-out: EC50 concentrations for MCC cell lines, WaGa
Excerpt: as §1, §2, §3

MCC cell lines = test: cells; conditions: Homo sapiens, read-out: EC50, active in vitro at low doses
Protocol: as §3, with “Serial” for “Compounds that met the selection criteria <10% cell survival were purchased or obtained in bulk from NCI/NIH Developmental Therapeutics Program. Serial”

MKL-1 cells = test: Immunoblotting for cPARP, cCaspase 3 and LC3; type: cell-based, human; conditions: 100 nM, 48 hours
[1] = test system: human MKL-1 MCC xenografts
Protocol: Compounds were dissolved in sterile 0.9% saline solution for administration to animals.
Six-week-old female triple immune-deficient NSG (Nod-SCID gamma) mice (Jackson Laboratory) were maintained in a specific pathogen-free environment.
MCC cells were checked for viability >90% by trypan blue staining, resuspended in PBS (2×10^7 cells in 100 μl) and inoculated subcutaneously into the right flank of mice.
All treatments were delivered for three consecutive weeks. […] YM-155 (2 mg/kg) was given intraperitoneally on five consecutive days, followed by a two-day treatment free interval.
Two-tailed paired Student's t test was used to analyze statistical differences in qRT-PCR results. Mouse survival curves were estimated using the Kaplan-Meier product-limit method and were compared using the log-rank test (GraphPad Software, La Jolla, Calif.). A piecewise linear hierarchical Bayesian model (Zhao et al., Bayesian hierarchical changepoint methods in modeling the tumor growth profiles in xenograft experiments. Clinical Cancer Res 17, 1057 (Mar. 1, 2011)) was used to characterize differences in tumor volumes and growth between treatments.
Cells of Merkel cell polyomavirus (+) carcinoma cell lines MKL-1, MS-1, WaGa, and MKL-2 were checked for viability >90% by trypan blue staining, resuspended in PBS (2×10^7 cells in 100 μl) and inoculated subcutaneously into the right flank of mice.
YM-155 was given intraperitoneally on five consecutive days, followed by a two-day treatment free interval. For YM155 this treatment continued for three weeks or until mice were euthanized. Mice were euthanized upon showing a tumor having a diameter of 20 mm, or upon a showing of significant distress (>20% weight loss or when they became moribund). Caliper measurements of the longest perpendicular tumor diameters were performed every other day and tumor volumes were calculated using the formula: (width)^2×(length/2). Survival was defined as time from the first day of treatment until death/sacrifice.

[2] = Example 2, 1 mg/kg for three weeks
[3] = three weeks treatment, bortezomib 1 mg/kg twice weekly, YM155 2 mg/kg 5 times weekly

In the case of `CC(C)C[C@H](NC(=O)[C@H](Cc1ccccc1)NC(=O)c1cnccn1)B(O)O` [Bortezomib], the EC50 (MKL-1) is reported as 13 nM, the EC50 (MKL-2) is reported as 5 nM and the EC50 (MS-1) is reported as 2 nM. The EC50 (UISO) was 3 nM, the EC50 (WaGa) was 1 nM and the EC50 (MCC cell lines) was 1.3 to 13.2 nM. The “apoptosis measured by caspase 3 and PARP cleavage” value (MKL-1 cells) was “activated PARP and caspase cleavage”, the “survival compared to saline” value [1, 2] was “survived as long as those receiving saline” and the “time after treatment began at which the last animal died” value [1, 2] was “approximately one month”. The “tolerability / adverse effects in mice” value ([1]; bortezomib 1 mg/kg twice weekly, YM155 2 mg/kg 5 times weekly) was “associated with mouse lethargy and weight loss”, the “mice dying during treatment (up to day 19)” value [1, 3] was 67% and the “xenograft tumor growth / progression during treatment” value [1, 3] was “did not significantly affect MCC tumor progression or volume”.

— patent publication US9662329B2, “Use of survivin antagonists in polyomavirus-related disease” (University of Pittsburgh—Of the Commonwealth System of …, priority 2012, dated 2017)
